Laboratory results reported in US10227323B2, “Glucosylceramide synthase inhibitors for the treatment of diseases” (BIOMARIN PHARMACEUTICAL INC., priority 2013, dated 2019).

The molecules below were run against T1, GCS (Canis lupus familiaris, UniProt A0A8I3MXG6) (assay: Assay 1: GCS Enzymatic Assay (MDCK cell lysate, C6-NBD-Ceramide, LC/MS)). Settings: Table 1; MDCK cell lysate; read-out: IC50 (nM) generated from Assay 1.
T1 sequence (A0A8I3MXG6 1-394): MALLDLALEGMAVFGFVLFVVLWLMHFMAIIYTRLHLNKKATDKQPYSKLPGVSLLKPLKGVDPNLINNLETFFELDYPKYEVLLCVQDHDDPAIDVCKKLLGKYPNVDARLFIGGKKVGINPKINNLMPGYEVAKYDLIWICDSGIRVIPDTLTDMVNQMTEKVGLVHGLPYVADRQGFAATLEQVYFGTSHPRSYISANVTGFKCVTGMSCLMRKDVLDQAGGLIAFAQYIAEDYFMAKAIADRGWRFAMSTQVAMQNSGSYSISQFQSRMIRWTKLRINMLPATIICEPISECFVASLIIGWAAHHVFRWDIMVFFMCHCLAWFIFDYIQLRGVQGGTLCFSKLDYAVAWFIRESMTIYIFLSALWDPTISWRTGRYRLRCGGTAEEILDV
Format: biochemical, canine
Procedure, shortened: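 LC/MS/MS measurement of glucosylceramide and NBD-ceramide after a 1 h, 37 °C reaction with 100 μM UDP-glucose and 10 μM C6-NBD-ceramide gave IC50s or percent inhibition.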
Work on O=C(N[C@H](CN1CCCC1)[C@H](O)c1ccc2c(c1)OCCO2)C(F)(F)c1cc2c(Cl)c(Cl)ccc2o1 [Compound 19, 2-(4,5-dichlorobenzofuran-2-yl)-N-((1R,2R)-1-(2,3-dihydrobenzo[b][1,4]dioxin-6-yl)-1-hydroxy-3-(pyrrolidin-1-yl)propan-2-yl)-2,2-difluoroacetamide] yielded an IC50 of less than 50 nM. With COc1ccc([C@@H](O)[C@@H](CN2CCCC2)NC(=O)C(F)(F)c2cc3cc(Cl)ccc3o2)cn1 [Compound 56, 2-(5-chlorobenzofuran-2-yl)-2,2-difluoro-N-((1R,2R)-1-hydroxy-1-(6-methoxypyridin-3-yl)-3-(pyrrolidin-1-yl)propan-2-yl)acetamide] the IC50 was less than 50 nM.

Same assay, conditions: Table 1; values marked *; MDCK cell lysate
For O=C(N[C@H](CN1CC2(CCC2)C1)[C@H](O)c1ccc2c(c1)OCCO2)C(F)(F)c1cc2cc(Cl)ccc2o1 [Compound 48, 2-(5-chlorobenzofuran-2-yl)-N-((1R,2R)-1-(2,3-dihydrobenzo[b][1,4]dioxin-6-yl)-1-hydroxy-3-(2-azaspiro[3.3]heptan-2-yl)propan-2-yl)-2,2-difluoroacetamide], the “% inhibition generated from Assay 1” value was “B* (the compound had a % inhibition of greater than or equal to about 3% but less than about 50%)”.

Same assay, conditions: Table 2; data marked by *
In the case of O=C(N[C@H](CN1CCC1)[C@H](O)c1ccc(OC2CC2)c(Cl)c1)/C(CCc1ccc2ccccc2c1)=N/O [Compound 164, (E)-N-((1R,2R)-3-(azetidin-1-yl)-1-(3-chloro-4-cyclopropoxyphenyl)-1-hydroxypropan-2-yl)-2-(hydroxyimino)-4-(naphthalen-2-yl)butanamide], the “% inhibition generated from Assay 1” value was “A* (the compound had a % inhibition of a percent inhibition of greater than or equal to about 50%)”. With O=C(N[C@H](CN1CCC1)[C@H](O)c1ccc(OC2CC2)c(Cl)c1)C(=O)c1cc2cc(Cl)ccc2o1 [Compound 122, N-((1R,2R)-3-(azetidin-1-yl)-1-(3-chloro-4-cyclopropoxyphenyl)-1-hydroxypropan-2-yl)-2-(5-chlorobenzofuran-2-yl)-2-oxoacetamide] the “% inhibition generated from Assay 1” value was “A* (the compound had a % inhibition of a percent inhibition of greater than or equal to about 50%)”.

Same assay, conditions: Table 2; data without asterisk; read-out: IC50 (nM) generated from Assay 1
Work on O=C(N[C@H](CN1CCC1)[C@H](O)c1ccc(OC2CC2)c(Cl)c1)C(=O)c1ccc(-c2ccc(F)cc2)cc1 [Compound 253, N-((1R,2R)-3-(azetidin-1-yl)-1-(3-chloro-4-cyclopropoxyphenyl)-1-hydroxypropan-2-yl)-2-(4′-fluoro-[1,1′-biphenyl]-4-yl)-2-oxoacetamide] yielded an IC50 of less than 50 nM. CC(C)n1cc2ccc(C(=O)C(=O)N[C@H](CN3CCCC3)[C@H](O)c3cc(F)c4c(c3)OCCO4)cc2n1 [Example 312, N-((1R,2R)-1-(8-fluoro-2,3-dihydrobenzo[b][1,4]dioxin-6-yl)-1-hydroxy-3-(pyrrolidin-1-yl)propan-2-yl)-2-(2-isopropyl-2H-indazol-6-yl)-2-oxoacetamide] showed an IC50 of less than 50 nM. O=C(N[C@H](CN1CCCC1)[C@H](O)c1ccc(OC2CC2)c(Cl)c1)C(=O)c1ccc(-c2ccc(F)cc2)nc1 [Example 287, N-((1R,2R)-1-(3-chloro-4-cyclopropoxyphenyl)-1-hydroxy-3-(pyrrolidin-1-yl)propan-2-yl)-2-(6-(4-fluorophenyl)pyridin-3-yl)-2-oxoacetamide] gave an IC50 of less than 50 nM. O=C(N[C@H](CN1CCCC1)[C@H](O)c1cc(F)c2c(c1)OCCO2)C(F)(F)c1ccc(-c2ccc(F)cn2)cc1 [Compound 183, 2,2-difluoro-N-((1R,2R)-1-(8-fluoro-2,3-dihydrobenzo[b][1,4]dioxin-6-yl)-1-hydroxy-3-(pyrrolidin-1-yl)propan-2-yl)-2-(4-(5-fluoropyridin-2-yl)phenyl)acetamide] was tested, and the IC50 was less than 50 nM. With O=C(N[C@H](CN1CCCC1)[C@H](O)c1cc(F)c2c(c1)OCCO2)C(=O)c1ccc(-c2ccn(C3CC3)n2)cc1 [Example 350, 2-(4-(1-cyclopropyl-1H-pyrazol-3-yl)phenyl)-N-((1R,2R)-1-(8-fluoro-2,3-dihydrobenzo[b][1,4]dioxin-6-yl)-1-hydroxy-3-(pyrrolidin-1-yl)propan-2-yl)-2-oxoacetamide] the IC50 was less than 50 nM. For O=C(N[C@H](CN1CCC1)[C@H](O)c1cc(F)c2c(c1)OCCO2)C(=O)c1cccc(Oc2ccc(F)cc2)c1 [Compound 248, N-((1R,2R)-3-(azetidin-1-yl)-1-(8-fluoro-2,3-dihydrobenzo[b][1,4]dioxin-6-yl)-1-hydroxypropan-2-yl)-2-(3-(4-fluorophenoxy)phenyl)-2-oxoacetamide], the IC50 was less than 50 nM. O=C(N[C@H](CN1CCCC1)[C@H](O)c1ccc(OC2CC2)c(Cl)c1)C(=O)c1ccc(-c2ccc3cn(C4CC4)nc3c2)cc1 [Example 284, N-((1R,2R)-1-(3-chloro-4-cyclopropoxyphenyl)-1-hydroxy-3-(pyrrolidin-1-yl)propan-2-yl)-2-(4-(2-cyclopropyl-2H-indazol-6-yl)phenyl)-2-oxoacetamide] showed an IC50 of less than 50 nM. Work on CC(C)n1ccc2cc(C(=O)C(=O)N[C@H](CN3CCCC3)[C@H](O)c3cc(F)c4c(c3)OCCO4)ccc21 [Example 323, N-((1R,2R)-1-(8-fluoro-2,3-dihydrobenzo[b][1,4]dioxin-6-yl)-1-hydroxy-3-(pyrrolidin-1-yl)propan-2-yl)-2-(1-isopropyl-1H-indo1-5-yl)-2-oxoacetamide] yielded an IC50 of less than 50 nM. With O=C(N[C@H](CN1CCCC1)[C@H](O)c1ccc(OC2CC2)c(Cl)c1)C(=O)c1ccc(N2CCCC2)cc1 [Example 343, N-((1R,2R)-1-(3-chloro-4-cyclopropoxyphenyl)-1-hydroxy-3-(pyrrolidin-1-yl)propan-2-yl)-2-oxo-2-(4-(pyrrolidin-1-yl)phenyl)acetamide] the IC50 was less than 50 nM. In the case of O=C(N[C@H](CN1CCCC1)[C@H](O)c1ccc(OC2CC2)c(Cl)c1)C(=O)c1ccc2ccccc2c1 [Compound 209, N-((1R,2R)-1-(3-chloro-4-cyclopropoxyphenyl)-1-hydroxy-3-(pyrrolidin-1-yl)propan-2-yl)-2-(naphthalen-2-yl)-2-oxoacetamide], the IC50 was less than 50 nM. Cc1cc(F)ccc1-c1ccc(C(=O)C(=O)N[C@H](CN2CCCC2)[C@H](O)c2ccc(OC3CC3)c(Cl)c2)cc1 [Example 295, N-((1R,2R)-1-(3-chloro-4-cyclopropoxyphenyl)-1-hydroxy-3-(pyrrolidin-1-yl)propan-2-yl)-2-(4′-fluoro-2′-methyl-[1,1′-biphenyl]-4-yl)-2-oxoacetamide] gave an IC50 of 50 to 5000 nM. CC(C)(C)c1ccc(-c2ccc(C(=O)C(=O)N[C@H](CN3CCC3)[C@H](O)c3cc(F)c4c(c3)OCCO4)cc2)cc1 [Example 293, N-((1R,2R)-3-(azetidin-1-yl)-1-(8-fluoro-2,3-dihydrobenzo[b][1,4]dioxin-6-yl)-1-hydroxypropan-2-yl)-2-(4′-(tert-butyl)-[1,1′-biphenyl]-4-yl)-2-oxoacetamide] showed an IC50 of less than 50 nM. O=C(N[C@H](CN1CCCC1)[C@H](O)c1cc(F)c2c(c1)OCCO2)C(=O)c1ccc(-c2ccc(Cl)s2)cc1 [Compound 360, 2-(4-(5-chlorothiophen-2-yl)phenyl)-N-((1R,2R)-1-(8-fluoro-2,3-dihydrobenzo[b][1,4]dioxin-6-yl)-1-hydroxy-3-(pyrrolidin-1-yl)propan-2-yl)-2-oxoacetamide] showed an IC50 of less than 50 nM.
